Legend:
[1] = tested on: MV4-11; assay: Anti-leukemia activity against human MV4-11 cells assessed as decrease in cell proliferation incubated for 72 hrs by CCK-8 assay; assay type: functional, cell-based; details: MV4-11, 72 h
[2] = target: T1, ATP-dependent Clp protease proteolytic subunit, mitochondrial (Homo sapiens, UniProt Q16740); assay: Agonist activity at human Casein lysing protease P (HsClpP) assessed as increase in peptidase activity using fluorescent peptide AC-WLA-AMC as substrate measured after 2 hrs by […]
[3] = Cmax in Sprague-Dawley rat at 15 mg/kg, po measured upto 12 hrs by LC-MS analysis; assay type: ADME, organism-based; details: in vivo
[4] = MRT (0 to 12hrs) in Sprague-Dawley rat at 5 mg/kg, iv measured upto 12 hrs by LC-MS analysis; assay type: ADME, organism-based; details: in vivo
[5] = Cmax in Sprague-Dawley rat at 5 mg/kg, iv measured upto 12 hrs by LC-MS analysis; assay type: ADME, organism-based; details: in vivo
[6] = Bioavailability in Sprague-Dawley rat at 5 mg/kg, iv measured upto 12 hrs by LC-MS analysis; assay type: ADME, organism-based; details: in vivo
[7] = MRT (0 to 12hrs) in Sprague-Dawley rat at 15 mg/kg, po measured upto 12 hrs by LC-MS analysis; assay type: ADME, organism-based; details: in vivo
[8] = Half life in Sprague-Dawley rat at 5 mg/kg, iv measured upto 12 hrs by LC-MS analysis; assay type: ADME, organism-based; details: in vivo
[9] = Half life in Sprague-Dawley rat at 15 mg/kg, po measured upto 12 hrs by LC-MS analysis; assay type: ADME, organism-based; details: in vivo
[10] = Tmax in Sprague-Dawley rat at 15 mg/kg, po measured upto 12 hrs by LC-MS analysis; assay type: ADME, organism-based; details: in vivo
[11] = AUC(0 to 12hrs) in Sprague-Dawley rat at 5 mg/kg, iv measured upto 12 hrs by LC-MS analysis; assay type: ADME, organism-based; details: in vivo
[12] = Clearance in Sprague-Dawley rat at 5 mg/kg, iv measured upto 12 hrs by LC-MS analysis; assay type: ADME, organism-based; details: in vivo
[13] = AUC(0 to 12hrs) in Sprague-Dawley rat at 15 mg/kg, po measured upto 12 hrs by LC-MS analysis; assay type: ADME, organism-based; details: in vivo
[14] = tested on: MV4-11; assay: Potency index, ratio of ONC201 IC50 to test compound IC50 for anti-leukemia activity against human MV4-11 cells assessed as decrease in cell proliferation incubated for 72 hrs by CCK-8 assay; assay type: functional
[15] = target: T1, ATP-dependent Clp protease proteolytic subunit, mitochondrial; details: filed as agonist, dose 10.0 µM, time 2.0 hrs

T1 sequence (Q16740 whole entry): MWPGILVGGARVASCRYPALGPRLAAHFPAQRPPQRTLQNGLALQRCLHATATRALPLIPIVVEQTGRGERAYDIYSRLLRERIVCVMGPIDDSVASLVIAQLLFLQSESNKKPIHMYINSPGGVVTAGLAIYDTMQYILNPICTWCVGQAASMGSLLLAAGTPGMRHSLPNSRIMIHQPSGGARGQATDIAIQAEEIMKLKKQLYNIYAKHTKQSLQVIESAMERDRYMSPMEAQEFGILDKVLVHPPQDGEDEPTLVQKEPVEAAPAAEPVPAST

Compound	IC50 [1] [nM]	EC50 [2] [nM]	further results
O=c1nc(NCc2cccnc2)[nH]c2c1CN(Cc1ccccc1)CC2	> 10000	> 10000	–
O=c1nc(NCc2ccccc2)[nH]c2c1CN(CC1CC1)CC2	> 10000	> 10000	–
Cc1cccc(CN2CCc3[nH]c(NCc4ccccc4)nc(=O)c3C2)c1	2400	2250	–
N#Cc1cccc(CN2CCc3[nH]c(NCc4ccc(Cl)c(Cl)c4)nc(=O)c3C2)c1	60	820	–
O=c1nc(NCc2cccc(Cl)c2)[nH]c2c1CN(Cc1ccccc1)CC2	1880	> 10000	–
N#Cc1cccc(CN2CCc3[nH]c(NCc4ccccc4)nc(=O)c3C2)c1	450	610	–
O=c1nc(NCc2ccc3ccccc3c2)[nH]c2c1CN(Cc1ccccc1)CC2	2400	2250	–
O=c1nc(NCc2ccccc2)[nH]c2c1CN(Cc1ccccc1F)CC2	> 10000	> 10000	–
N#Cc1cccc(CN2CCc3[nH]c(NCc4cccc(F)c4)nc(=O)c3C2)c1	> 10000	> 10000	–
CCNc1nc(=O)c2c([nH]1)CCN(Cc1ccccc1)C2	> 10000	> 10000	–
O=c1nc(NCc2ccc(C(F)(F)F)cc2)[nH]c2c1CN(Cc1cc(F)cc(F)c1)CC2	> 10000	> 10000	–
O=c1nc(NCc2ccc3c(c2)OCO3)[nH]c2c1CN(Cc1ccc(Cl)c(Cl)c1)CC2	> 10000	> 10000	–
O=c1nc(NCc2ccccc2)[nH]c2c1CN(Cc1ccccc1)CC2	> 10000	1340	–
O=c1nc(NCC2CCCCC2)[nH]c2c1CN(Cc1ccccc1)CC2	> 10000	> 10000	–
O=c1nc(NCc2ccccc2)[nH]c2c1CN(Cc1ccc(F)cc1)CC2	> 10000	> 10000	–
O=c1nc(NCc2ccccc2)[nH]c2c1CN(Cc1cccc(Cl)c1)CC2	930	1090	–
O=c1nc(NCc2ccc(F)cc2)[nH]c2c1CN(Cc1ccccc1)CC2	360	1000	–
O=c1nc(NCc2ccccc2Cl)[nH]c2c1CN(Cc1ccccc1)CC2	> 10000	> 10000	–
O=c1nc(NCc2ccccc2F)[nH]c2c1CN(Cc1ccccc1)CC2	930	1350	–
O=c1nc(NCc2cnccn2)[nH]c2c1CN(Cc1ccccc1)CC2	> 10000	> 10000	–

Compound	IC50 [1] [nM]	EC50 [2] [nM]	further results
Cc1ccc(CNc2nc(=O)c3c([nH]2)CCN(Cc2ccccc2)C3)cc1	1610	1110	–
O=c1nc(NCc2ccc(Br)cc2)[nH]c2c1CN(Cc1ccccc1)CC2	930	1950	–
Cc1ccccc1CNc1nc(=O)c2c([nH]1)CCN(Cc1cccc(C#N)c1)C2	> 10000	> 10000	–
Cc1ccccc1CN1C(=O)C2=C(CCN(Cc3ccccc3)C2)N2CCN=C12.Cl	–	–	Cmax [3]: 448 ng/mL; MRT last at 12 h [4]: 0.7 h; Cmax [5]: 970 ng/mL; bioavailability [6]: 14.8%; MRT last at 12 h [7]: 1.3 h; half-life [8]: 1.1 h; half-life [9]: 1.4 h; Tmax [10]: 0.5 h; AUC(0-t) at 12 h [11]: 1270 ng·h/mL; clearance [12]: 96.7 mL/min/kg; AUC(0-t) at 12 h [13]: 565 ng·h/mL
O=c1nc(NCC2CC2)[nH]c2c1CN(Cc1ccccc1)CC2	> 10000	> 10000	–
CCN1CCc2[nH]c(NCc3ccccc3)nc(=O)c2C1	> 10000	> 10000	–
O=c1nc(NCc2ccc(C(F)(F)F)cc2)[nH]c2c1CN(Cc1ccccc1)CC2	1200	2100	–
N#Cc1cccc(CN2CCc3[nH]c(NCc4ccc(F)c(F)c4)nc(=O)c3C2)c1	30	870	Ratio IC50 [14]: 20
O=c1nc(NCc2ccccc2)[nH]c2c1CN(Cc1ccc(Cl)cc1)CC2	970	1210	–
COc1ccc(CNc2nc(=O)c3c([nH]2)CCN(Cc2ccccc2)C3)cc1	830	2020	–
Cc1ccc(CN2CCc3[nH]c(NCc4ccccc4)nc(=O)c3C2)cc1	> 10000	> 10000	–
O=c1nc(NCc2ccc(C(F)(F)F)cc2)[nH]c2c1CN(Cc1ccc(Cl)c(Cl)c1)CC2	> 10000	> 10000	–
O=c1nc(NCc2ccc3c(c2)OCO3)[nH]c2c1CN(Cc1cc(F)cc(F)c1)CC2	> 10000	> 10000	–
Cc1ccccc1CN1CCn2c1nc(=O)c1c2CCN(Cc2ccccc2)C1	350	1920	–
COc1cccc(CNc2nc(=O)c3c([nH]2)CCN(Cc2ccccc2)C3)c1	> 10000	> 10000	–
O=c1nc(NCc2cccc(F)c2)[nH]c2c1CN(Cc1ccccc1)CC2	> 10000	> 10000	–
Cc1ccccc1CN1CCc2[nH]c(NCc3ccccc3)nc(=O)c2C1	> 10000	> 10000	–
COc1cccc(CN2CCc3[nH]c(NCc4ccccc4)nc(=O)c3C2)c1	1680	> 10000	–
O=c1[nH]c(NCCc2ccccc2)nc2c1CN(Cc1ccccc1)CC2	> 10000	> 10000	–
O=c1nc(NCc2ccc(Cl)cc2)[nH]c2c1CN(Cc1ccccc1)CC2	1690	1950	–

Compound	IC50 [1] [nM]	EC50 [2] [nM]	further results
N#Cc1cccc(CN2CCc3[nH]c(NCc4ccc(C(F)(F)F)cc4)nc(=O)c3C2)c1	> 10000	> 10000	–
COc1ccccc1CNc1nc(=O)c2c([nH]1)CCN(Cc1ccccc1)C2	> 10000	> 10000	–
CS(=O)(=O)c1ccc(CN2CCc3[nH]c(NCc4ccccc4)nc(=O)c3C2)cc1	> 10000	> 10000	–
O=c1nc(NCc2ccc(F)c(F)c2)[nH]c2c1CN(Cc1cc(F)cc(F)c1)CC2	30	510	Ratio IC50 [14]: 20
Cc1cccc(CNc2nc(=O)c3c([nH]2)CCN(Cc2ccccc2)C3)c1	1630	> 10000	–
O=c1nc(NCc2ccccc2)[nH]c2c1CN(Cc1cccc(F)c1)CC2	830	2020	–
O=c1nc(NCc2ccccc2)[nH]c2c1CN(Cc1cc(F)cc(F)c1)CC2	900	950	–
O=c1nc(NCc2ccc(F)c(F)c2)[nH]c2c1CN(Cc1ccccc1)CC2	480	1410	–
O=c1nc(NCc2ccccc2)[nH]c2c1CN(Cc1ccc(Cl)c(Cl)c1)CC2	360	1000	–
O=c1nc(NCc2ccccc2Br)[nH]c2c1CN(Cc1ccccc1)CC2	> 10000	> 10000	–
O=c1nc(NCc2ccc(Cl)c(Cl)c2)[nH]c2c1CN(Cc1ccccc1)CC2	450	610	–
Cc1ccccc1CNc1nc(=O)c2c([nH]1)CCN(Cc1ccccc1)C2	1510	1220	–
O=c1nc(NCc2ccc3c(c2)OCO3)[nH]c2c1CN(Cc1ccccc1)CC2	2900	520	–
Cc1ccccc1CNc1nc(=O)c2c([nH]1)CCN(Cc1cc(F)cc(F)c1)C2	> 10000	> 10000	–
N#Cc1cccc(CN2CCc3[nH]c(NCc4ccc(F)cc4)nc(=O)c3C2)c1	–	–	ΔTm [15]: 18.3 °C
O=c1nc(NCc2cccc(Br)c2)[nH]c2c1CN(Cc1ccccc1)CC2	> 10000	> 10000	–
O=c1nc(NCc2ccccc2)[nH]c2c1CN(CCc1ccccc1)CC2	> 10000	> 10000	–
O=c1nc(NCc2ccccc2)[nH]c2c1CN(Cc1ccccc1Cl)CC2	1030	1350	–
N#Cc1ccccc1CN1CCc2[nH]c(NCc3ccccc3)nc(=O)c2C1	> 10000	> 10000	–
O=c1nc(NCc2ccccc2)[nH]c2c1CN(Cc1ccc(F)c(F)c1)CC2	1200	2100	–

From ChEMBL document CHEMBL5543151, “Rational Design of a Novel Class of Human ClpP Agonists through a Ring-Opening Strategy with Enhanced Antileukemia Activity” (J Med Chem, 2024)
